Experimental data: US11279079B2, “Cell electrochemical sensor based on 3D printing technology and application thereof” (Jiangnan University, priority 2020, dated 2022)

Columns and labels:
[1] = pigs, in vivo; cited from earlier work
[2] = test system: lung adenocarcinoma epithelial cells A549; test: Cell electrochemical sensor (3D-printed A549/carbon nanofiber/GelMA on screen-printed carbon electrode), EIS cytotoxicity and combination index evaluation; assay type: cell-based, human; details: for IC50 value measured by the EIS method: A549 cell sensor of example 1, 24 hours toxin stimulation, single toxin or combined effect; for impedance value of the cell sensor with increasing dose: concentration range of 0.1-5 μg/mL, 24 hours
Procedure: In an embodiment of the disclosure, the cell sensor needs to be incubated before application, and specific operations comprise: dropping a DMEM cell culture medium at a working electrode of a screen-printed carbon electrode to ensure that the culture medium can cover a cell/carbon nanofiber/GelMA complex on the working electrode to provide cells with nutrients needed for growth, and then placing the working electrode in an incubator with the carbon dioxide concentration of 5% and the humidity of 95% for incubation at 37° C. for 6-12 hours; after incubation, removing the original culture medium on the working electrode, diluting toxin standard substances with the DMEM cell culture medium into gradient concentration solutions, dropping the gradient concentration solutions on the working electrode printed with cells, and then carrying out electrochemical detection after placing the working electrode in the incubator for effect for 24 hours.
In an embodiment of the disclosure, the method uses a modified screen-printed carbon electrode as a sensing interface, a PET material is used as a substrate, the working electrode is composed of carbon, the reference electrode is composed of silver/silver chloride, the counter electrode is composed of carbon, electrochemical detection adopts electrochemical impedance spectroscopy (EIS) to test electrical signal changes of cells stimulated by toxins, the initial potential is 0.2 V, and the frequency range is 1 Hz-10^5 Hz.
In an embodiment of the disclosure, the electrochemical AC impedance method (EIS) measures the signals obtained by the electrochemical sensor stimulated by different concentrations of toxins, the impedance value is calculated by fitting the equivalent circuit with Zview software, the cell viability inhibition rates of different concentrations of toxins are calculated, and the calculation method is as follows: […]
(1) Drug stimulation: An original culture medium on a working electrode is removed, toxin standard substances are diluted with a DMEM cell culture medium into gradient concentration solutions, and then 150 μL of DON toxin solutions in the concentration range of 0.1, 0.2, 0.5, 1, 2 and 5 μg/mL, 150 μL of 15-ADON toxin solutions in the concentration range of 0.1, 0.2, 0.5, 1, 2 and 5 μg/mL and 150 μL of DON+15-ADON toxin solutions in the concentration range of 0.1+0.1, 0.2+0.2, 0.5+0.5, 1+1, 2+2 and 5+5 μg/mL are taken and dropped on the working electrode printed with cells respectively, the working electrode is placed in an incubator for effect for 24 hours, and corresponding impedance values are measured. […]

CC(=O)O[C@@H]1C[C@]2(C)[C@@]3(CO)[C@H](O)C(=O)C(C)=C[C@H]3O[C@H]1[C@@]21CO1 [3-ADON]
conversion into DON in blood [1]: quickly converted into DON

CC1=C[C@H]2O[C@@H]3[C@H](O)C[C@](C)([C@@]2(CO)[C@H](O)C1=O)[C@]31CO1 [DON, deoxynivalenol]
IC50 value measured by the EIS method [2]: 0.9281 µg/mL | impedance value of the cell sensor with increasing dose [2]: gradually reduced

CC(=O)OC[C@]12[C@H](O)C(=O)C(C)=C[C@H]1O[C@@H]1[C@H](O)C[C@@]2(C)[C@]12CO2 [15-ADON, 15-acetyl-deoxynivalenol]
IC50 value measured by the EIS method [2]: 1.2560 µg/mL | impedance value of the cell sensor with increasing dose [2]: gradually reduced
